Where “and” joins values, the source holds several entries; their conditions need not be identical. Equal entries are not always repeated. Where two headings read alike, the source gives them in different places.
Experiments:
[1] = system: Sprague Dawley rats; details: rat; for Score (histopathology liver necrosis severity score): Sprague Dawley, 72 h; for Score (histopathology liver necrosis severity score) / Liver Necrosis: ip
Description: Sprague Dawley rats Crl:CD from Charles River, Raleigh, N.C. were divided into treated rats that receive a specific concentration of the compound (see Table 1) and. control rats that only received the vehicle in which the compound is mixed (e.g., saline).
At specified timepoints (6 h, 24 h and 72 h) after administration (intraperitoneal route) of the compound, a set number of rats (usually 3 control and 3 treated) were euthanized and tissues collected. Each, rat was heavily sedated with an overdose of CO2 by inhalation and a maximum amount of blood drawn. Exsanguination of the rat by this drawing of blood kills the rat. The method of collecting the tissues is very important and ensures preserving the quality of the mRNA in the tissues. The body of the rat was then opened up and prosectors rapidly removed the tissues (including) and immediately placed them into liquid nitrogen. […] The organs/tissues were then packaged into well-labeled plastic freezer quality bags and stored at −80 degrees until needed for isolation of the mRNA from a portion of the organ/tissue sample.
Histopathology scores for each animal (assigned on a compound-dose basis as indicated in Table 1) were entered with gene expression data by using the GeneSpring™ ‘Drawn Gene’ function. Correlations between the histopathology scores and gene expression were conducted with the distance measures listed below:
Toxicity classifications were entered for training and test set as a parameter column. Toxicity, as defined by observation of necrosis in the at 72 hours after treatment, was entered as a “yes” or “no” for each animal in a compound-dose group. Additionally, a parameter column for random histopathology classification was designated. This was done by randomly assigning the same number of “yes” and “no” calls to the individual animals.

[2] = system: toxicologically relevant rat genes (rat CT array)
[3] = 24 h, dose 1000, listed as APAP

## CC(=O)Nc1ccc(O)cc1 [acetaminophen]
[1]; in vivo, 250 mg/kg
  Score (histopathology liver necrosis severity score): 1
  Liver Necrosis: no
[1]; in vivo, 1000 mg/kg
  Score (histopathology liver necrosis severity score): 2
  Liver Necrosis: Yes
[1]; in vivo
  toxicity at the high dose: produced toxicity
[1]; low dose of Table 1, liver necrosis at 72 hours
  toxicity at the low dose: not at the low dose
[2]; 24 h
  Aflatoxin B1 aldehyde reductase expression (treatment/control): 3.687 and 4.607 and 5.763
[2]; [3]
  3-hydroxyisobutyrate dehydrogenase expression (treatment/control): 0.8093 and 0.6875 and 0.5181
  14-3-3 zeta expression (treatment/control): 1.279 and 1.34 and 2.193
  25-DX expression (treatment/control): 1.304 and 1.667 and 1.897
  60S ribosomal protein L6 expression (treatment/control): 1.31 and 2.123 and 2.39
  Alpha 1 - inhibitor III expression (treatment/control): 0.4712 and 0.4696 and 0.2941
  Alpha-2-macroglobulin expression (treatment/control): 0.5487 and 0.4873 and 0.3551
  Apolipoprotein CIII expression (treatment/control): 0.702 and 0.753 and 0.464
  Bax (alpha) expression (treatment/control): 1.285 and 1.306 and 1.621
  Calpactin I heavy chain expression (treatment/control): 1.347 and 1.282 and 1.692
  Carbamyl phosphate synthetase I expression (treatment/control): 0.7736 and 0.7076 and 0.6953
  Carbonyl reductase expression (treatment/control): 1.218 and 1.144 and 1.992
  Cofilin expression (treatment/control): 0.9081 and 0.9679 and 1.261
  DNA polymerase beta expression (treatment/control): 0.8811 and 1.223 and 1.54
  Elongation factor-1 alpha expression (treatment/control): 1.174 and 1.533 and 1.746
  Endogenous retroviral sequence, 5′ and 3′ LTR expression (treatment/control): 1.114 and 1.112 and 1.648
  Enolase alpha expression (treatment/control): 1.382 and 2.619 and 2.308
  Epidermal growth factor expression (treatment/control): 0.7557 and 0.7312 and 0.6935
  Extracellular-signal-regulated kinase 1 expression (treatment/control): 0.452 and 0.4073 and 0.261
  Fas antigen expression (treatment/control): 1.77 and 1.618 and 2.162
  Gadd153 expression (treatment/control): 1.15 and 1.234 and 2.2302
  Glucose-regulated protein 78 expression (treatment/control): 1.949 and 2.017 and 1.914
  Hepatic lipase expression (treatment/control): 0.5231 and 0.4276 and 0.3047
  ID-1 expression (treatment/control): 1.004 and 1.038 and 1.388
  IgE binding protein expression (treatment/control): 1.117 and 1.131 and 1.528
  IkB-a expression (treatment/control): 1.268 and 1.662 and 1.76
  Insulin-like growth factor binding protein 3 expression (treatment/control): 0.5707 and 0.5952 and 0.4059
  Liver fatty acid binding protein expression (treatment/control): 0.4243 and 0.4268 and 0.229
  MAP kinase kinase expression (treatment/control): 1.017 and 1.243 and 1.361
  Macrophage inflammatory protein-1 alpha expression (treatment/control): 1.158 and 1.138 and 1.685
  Matrix metalloproteinase-1 expression (treatment/control): 1.41 and 1.586 and 2.447
  Melanoma-associated antigen ME491 expression (treatment/control): 1.011 and 1.114 and 1.656
  Monocyte chemotactic protein receptor (CCR2) expression (treatment/control): 1.194 and 1.282 and 1.728
  NADPH quinone oxidoreductase-1 (DT-diaphorase) expression (treatment/control): 2.511 and 2.716 and 4.842
  Nucleoside diphosphate kinase beta isoform expression (treatment/control): 1.516
  Organic anion transporter 3 expression (treatment/control): 0.7554 and 0.5816 and 0.5461
  Organic cation transporter 3 expression (treatment/control): 1.215 and 1.663 and 2.064
  Ornithine decarboxylase expression (treatment/control): 1.918 and 2.163 and 3.092
  Phase-1 RCT 252 expression (treatment/control): 0.7905 and 0.6256
  Phase-1 RCT-12 expression (treatment/control): 1.884
  Phase-1 RCT-33 expression (treatment/control): 0.7278 and 0.4867
  Phase-1 RCT-36 expression (treatment/control): 0.9342 and 0.7084
  Phase-1 RCT-37 expression (treatment/control): 1.525 and 1.704
  Phase-1 RCT-38 expression (treatment/control): 0.8079 and 0.6659 and 0.4284
  Phase-1 RCT-40 expression (treatment/control): 0.3766
  Phase-1 RCT-48 expression (treatment/control): 0.6762 and 0.5881
  Phase-1 RCT-65 expression (treatment/control): 1.498
  Phase-1 RCT-68 expression (treatment/control): 2.006
  Phase-1 RCT-72 expression (treatment/control): 1.676
  Phase-1 RCT-78 expression (treatment/control): 0.6314 and 0.4384
  Phase-1 RCT-83 expression (treatment/control): 0.6151 and 0.4373 and 0.3263
  Phase-1 RCT-88 expression (treatment/control): 0.5934 and 0.6891 and 0.4014
  Phase-1 RCT-92 expression (treatment/control): 0.6478 and 0.6327 and 0.3995
  Phase-1 RCT-102 expression (treatment/control): 0.4854 and 0.3992 and 0.2737
  Phase-1 RCT-109 expression (treatment/control): 2.054 and 2.291
  Phase-1 RCT-123 expression (treatment/control): 0.983
  Phase-1 RCT-127 expression (treatment/control): 0.99 and 1.472
  Phase-1 RCT-137 expression (treatment/control): 0.72 and 0.8264 and 0.5868
  Phase-1 RCT-145 expression (treatment/control): 1.2 and 1.522 and 2.335
  Phase-1 RCT-152 expression (treatment/control): 1.202 and 1.996 and 2.355
  Phase-1 RCT-154 expression (treatment/control): 2.226
  Phase-1 RCT-162 expression (treatment/control): 1.476
  Phase-1 RCT-168 expression (treatment/control): 0.7401 and 0.471
  Phase-1 RCT-180 expression (treatment/control): 1.523 and 1.839
  Phase-1 RCT-181 expression (treatment/control): 0.6749
  Phase-1 RCT-185 expression (treatment/control): 0.5075 and 0.4368 and 0.3225
  Phase-1 RCT-191 expression (treatment/control): 1.498 and 2.514
  Phase-1 RCT-192 expression (treatment/control): 1.606 and 1.812
  Phase-1 RCT-205 expression (treatment/control): 1.793
  Phase-1 RCT-213 expression (treatment/control): 1.607 and 2.134
  Phase-1 RCT-214 expression (treatment/control): 0.7129 and 0.7249 and 0.4326
  Phase-1 RCT-242 expression (treatment/control): 1.936
  Phase-1 RCT-258 expression (treatment/control): 1.198 and 1.289 and 1.628
  Phase-1 RCT-264 expression (treatment/control): 0.4839 and 0.3686
  Phase-1 RCT-271 expression (treatment/control): 0.5952
  Phase-1 RCT-295 expression (treatment/control): 1.409 and 1.586 and 1.993
  Phase-1 RCT-296 expression (treatment/control): 0.4087 and 0.2215 and 0.347
  Pyruvate kinase, muscle expression (treatment/control): 1.015 and 0.9969 and 1.833
  Ref-1 expression (treatment/control): 1.85 and 2.112 and 3.617
  Ribosomal protein L13A expression (treatment/control): 2.348 and 2.582
  Ribosomal protein S8 expression (treatment/control): 1.864 and 2.055
  Sodium/bile acid cotransporter expression (treatment/control): 0.7685 and 0.5902 and 0.8858
  Superoxide dismutase Mn expression (treatment/control): 1.274 and 1.178 and 1.931
  T-cell cyclophilin expression (treatment/control): 0.8846 and 1.322 and 1.491
  Thymosin beta-10 expression (treatment/control): 1.285 and 1.383 and 1.788
  Transthyretin expression (treatment/control): 0.427 and 0.4938 and 0.34
  Ubiquitin conjugating enzyme (RAD 6 homologue) expression (treatment/control): 0.9549 and 1.282 and 1.558
  Uncoupling protein 2 expression (treatment/control): 1.201 and 1.111 and 1.462
  c-H-ras expression (treatment/control): 1.118 and 1.069 and 0.9092
  p53 expression (treatment/control): 0.8979 and 1.176 and 1.584
  {Ribosomal protein L6} expression (treatment/control): 1.978 and 2.321
[2]; rat, in vivo
  Multidrug resistant protein-1 expression (treatment/control): 1.241 and 1.202 and 1.889
  Paraoxonase 1 expression (treatment/control): 0.5292 and 0.4965 and 0.3855
